Four molecules from paper PMC11345841, “Exploring 2-Sulfonylpyrimidine Warheads as Acrylamide Surrogates for Targeted Covalent Inhibition: A BTK Story” (Journal of Medicinal Chemistry, 2024) can be followed below.

SMILES strings stand for the structures. Where a chain is given by its changes, count along the chain named. Where two headings read alike, the source gives them in different places.

The target of one experiment is T1, ERBB4 (Homo sapiens, UniProt Q15303).
T1 construct: purchased Eurofins DiscoverX KINOMEscan (scanTK)
T1 sequence (Q15303 26-1308): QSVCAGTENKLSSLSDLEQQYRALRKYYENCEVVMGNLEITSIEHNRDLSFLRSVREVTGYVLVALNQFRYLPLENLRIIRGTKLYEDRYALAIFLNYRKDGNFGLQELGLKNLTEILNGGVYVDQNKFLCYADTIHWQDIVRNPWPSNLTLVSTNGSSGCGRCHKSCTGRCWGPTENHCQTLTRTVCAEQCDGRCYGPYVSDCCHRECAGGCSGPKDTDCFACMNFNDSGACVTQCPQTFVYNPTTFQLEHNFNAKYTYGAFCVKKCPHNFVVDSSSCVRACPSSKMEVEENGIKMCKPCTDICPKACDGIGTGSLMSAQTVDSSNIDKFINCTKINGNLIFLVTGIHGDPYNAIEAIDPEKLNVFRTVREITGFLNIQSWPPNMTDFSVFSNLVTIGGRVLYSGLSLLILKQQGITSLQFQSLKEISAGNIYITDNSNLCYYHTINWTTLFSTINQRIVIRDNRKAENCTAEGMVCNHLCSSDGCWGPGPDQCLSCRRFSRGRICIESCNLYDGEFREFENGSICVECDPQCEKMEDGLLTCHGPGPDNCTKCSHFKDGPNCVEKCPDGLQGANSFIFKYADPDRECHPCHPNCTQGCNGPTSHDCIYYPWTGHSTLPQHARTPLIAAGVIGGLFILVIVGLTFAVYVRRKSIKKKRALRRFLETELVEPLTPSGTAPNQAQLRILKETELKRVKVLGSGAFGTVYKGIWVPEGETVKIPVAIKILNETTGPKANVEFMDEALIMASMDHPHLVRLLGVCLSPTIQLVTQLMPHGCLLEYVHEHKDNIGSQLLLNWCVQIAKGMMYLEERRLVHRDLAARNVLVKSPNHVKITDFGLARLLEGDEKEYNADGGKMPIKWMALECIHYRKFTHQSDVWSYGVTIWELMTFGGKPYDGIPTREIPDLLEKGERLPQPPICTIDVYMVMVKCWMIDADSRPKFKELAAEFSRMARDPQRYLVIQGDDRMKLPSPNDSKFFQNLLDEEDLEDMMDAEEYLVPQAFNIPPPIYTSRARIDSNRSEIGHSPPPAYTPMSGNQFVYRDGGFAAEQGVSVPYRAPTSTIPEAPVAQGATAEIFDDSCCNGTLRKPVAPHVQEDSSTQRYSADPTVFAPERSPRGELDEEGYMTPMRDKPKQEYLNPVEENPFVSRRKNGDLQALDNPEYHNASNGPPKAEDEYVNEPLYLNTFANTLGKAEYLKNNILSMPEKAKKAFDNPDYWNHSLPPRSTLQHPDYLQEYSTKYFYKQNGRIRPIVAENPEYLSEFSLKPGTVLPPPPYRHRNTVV
The experiment can be described thus: KINOMEscan ScanTK. It counts as binding.

Experiment [1] addresses T2, TYK2(JH2domain-pseudokinase) (Homo sapiens, UniProt P29597).
T2 construct: TYK2(JH2domain-pseudokinase); purchased Eurofins DiscoverX KINOMEscan (scanTK)
The experiment can be described thus: KINOMEscan ScanTK. In kind it is binding. Particulars: for difference in %Control versus Ib at 1 µM: read-out: % difference (compound - Ib %Control).

The target in the next experiment is T3, FLT3(D835H) (Homo sapiens, UniProt P36888, D835H).
T3 construct: purchased Eurofins DiscoverX KINOMEscan (scanTK)
T3 sequence (P36888 27-993 D835H): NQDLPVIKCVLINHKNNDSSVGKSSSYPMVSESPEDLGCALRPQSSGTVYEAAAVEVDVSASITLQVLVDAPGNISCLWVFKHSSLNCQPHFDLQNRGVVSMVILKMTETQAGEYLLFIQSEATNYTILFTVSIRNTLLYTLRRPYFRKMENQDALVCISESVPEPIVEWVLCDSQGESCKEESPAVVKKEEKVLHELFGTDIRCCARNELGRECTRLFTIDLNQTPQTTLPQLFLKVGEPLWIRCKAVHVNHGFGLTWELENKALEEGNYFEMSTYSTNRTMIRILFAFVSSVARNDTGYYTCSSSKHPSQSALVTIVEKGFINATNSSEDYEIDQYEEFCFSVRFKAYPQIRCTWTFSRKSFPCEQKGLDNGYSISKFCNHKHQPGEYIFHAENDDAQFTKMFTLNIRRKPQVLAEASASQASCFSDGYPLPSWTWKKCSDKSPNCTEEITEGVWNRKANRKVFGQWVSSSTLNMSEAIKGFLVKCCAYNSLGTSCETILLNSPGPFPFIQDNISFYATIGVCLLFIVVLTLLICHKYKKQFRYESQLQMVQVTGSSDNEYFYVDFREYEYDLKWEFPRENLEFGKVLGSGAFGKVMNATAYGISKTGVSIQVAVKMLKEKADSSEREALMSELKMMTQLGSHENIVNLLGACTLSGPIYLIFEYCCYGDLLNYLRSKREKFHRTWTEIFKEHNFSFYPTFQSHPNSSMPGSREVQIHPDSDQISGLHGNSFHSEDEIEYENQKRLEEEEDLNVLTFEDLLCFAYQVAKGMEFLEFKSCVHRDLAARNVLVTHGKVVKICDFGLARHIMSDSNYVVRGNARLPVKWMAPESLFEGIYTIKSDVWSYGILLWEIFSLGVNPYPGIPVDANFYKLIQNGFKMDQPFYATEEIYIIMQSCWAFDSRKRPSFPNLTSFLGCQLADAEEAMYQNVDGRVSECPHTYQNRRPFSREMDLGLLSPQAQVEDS
Briefly: KINOMEscan ScanTK. In kind it is binding.

For the next experiment, the system named is FLT3(ITD,D835V). The experiment can be described thus: KINOMEscan ScanTK. It counts as binding. Particulars: for % difference (compound - Ib %Control) / %Control: @1000nM.
The target of the next experiment is T4, FLT3(N841I) (Homo sapiens, UniProt P36888, N841I).
T4 construct: purchased Eurofins DiscoverX KINOMEscan (scanTK)
T4 sequence (P36888 27-993 N841I): T3 sequence (P36888 27-993 D835H) with H809D, N815I
The experiment can be described thus: KINOMEscan ScanTK. In kind it is binding.

For another experiment, the target named is T5, EGFR (Homo sapiens, UniProt P00533).
T5 construct: purchased Eurofins DiscoverX KINOMEscan (scanTK)
T5 sequence (P00533 25-1210): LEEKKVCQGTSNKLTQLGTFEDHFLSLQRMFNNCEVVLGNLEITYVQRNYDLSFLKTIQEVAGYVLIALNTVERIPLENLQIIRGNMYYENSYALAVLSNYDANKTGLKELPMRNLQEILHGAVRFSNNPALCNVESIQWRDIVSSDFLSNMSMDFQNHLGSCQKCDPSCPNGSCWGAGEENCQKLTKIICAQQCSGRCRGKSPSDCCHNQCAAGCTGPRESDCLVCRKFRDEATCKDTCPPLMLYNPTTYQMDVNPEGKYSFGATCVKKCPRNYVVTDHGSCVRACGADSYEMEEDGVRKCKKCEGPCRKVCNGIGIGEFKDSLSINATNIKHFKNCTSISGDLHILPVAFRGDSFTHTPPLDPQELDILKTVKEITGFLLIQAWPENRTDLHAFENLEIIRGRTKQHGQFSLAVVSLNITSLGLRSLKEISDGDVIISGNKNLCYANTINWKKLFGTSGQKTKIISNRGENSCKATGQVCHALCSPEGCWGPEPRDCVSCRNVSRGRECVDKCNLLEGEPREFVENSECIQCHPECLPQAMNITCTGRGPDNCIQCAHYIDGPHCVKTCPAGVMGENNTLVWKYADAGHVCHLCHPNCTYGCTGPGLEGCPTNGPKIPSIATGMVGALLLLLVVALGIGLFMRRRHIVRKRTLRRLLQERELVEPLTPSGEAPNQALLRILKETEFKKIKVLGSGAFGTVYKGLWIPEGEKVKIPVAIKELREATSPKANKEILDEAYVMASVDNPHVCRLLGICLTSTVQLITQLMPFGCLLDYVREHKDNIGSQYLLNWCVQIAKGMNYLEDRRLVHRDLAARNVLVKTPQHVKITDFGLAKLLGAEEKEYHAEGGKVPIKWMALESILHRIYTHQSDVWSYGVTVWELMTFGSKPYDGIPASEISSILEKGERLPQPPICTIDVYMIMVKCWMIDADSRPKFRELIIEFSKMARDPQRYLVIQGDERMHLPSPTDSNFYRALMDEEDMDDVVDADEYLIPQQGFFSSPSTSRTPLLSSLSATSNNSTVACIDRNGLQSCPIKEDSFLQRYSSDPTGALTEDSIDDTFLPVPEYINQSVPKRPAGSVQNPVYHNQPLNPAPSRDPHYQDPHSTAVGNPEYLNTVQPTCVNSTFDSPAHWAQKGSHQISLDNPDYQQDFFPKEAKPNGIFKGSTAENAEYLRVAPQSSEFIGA
Briefly: KINOMEscan ScanTK. It counts as binding. Particulars: for difference in %Control versus reference compound Ib at 1 µM / remaining binding at 1 µM: EGFR; for inhibition at 1 µM: ScanTK, WT EGFR.

The next experiment deals with T6, TRKC (Homo sapiens, UniProt Q16288).
T6 construct: purchased Eurofins DiscoverX KINOMEscan (scanTK)
T6 sequence (Q16288 32-839): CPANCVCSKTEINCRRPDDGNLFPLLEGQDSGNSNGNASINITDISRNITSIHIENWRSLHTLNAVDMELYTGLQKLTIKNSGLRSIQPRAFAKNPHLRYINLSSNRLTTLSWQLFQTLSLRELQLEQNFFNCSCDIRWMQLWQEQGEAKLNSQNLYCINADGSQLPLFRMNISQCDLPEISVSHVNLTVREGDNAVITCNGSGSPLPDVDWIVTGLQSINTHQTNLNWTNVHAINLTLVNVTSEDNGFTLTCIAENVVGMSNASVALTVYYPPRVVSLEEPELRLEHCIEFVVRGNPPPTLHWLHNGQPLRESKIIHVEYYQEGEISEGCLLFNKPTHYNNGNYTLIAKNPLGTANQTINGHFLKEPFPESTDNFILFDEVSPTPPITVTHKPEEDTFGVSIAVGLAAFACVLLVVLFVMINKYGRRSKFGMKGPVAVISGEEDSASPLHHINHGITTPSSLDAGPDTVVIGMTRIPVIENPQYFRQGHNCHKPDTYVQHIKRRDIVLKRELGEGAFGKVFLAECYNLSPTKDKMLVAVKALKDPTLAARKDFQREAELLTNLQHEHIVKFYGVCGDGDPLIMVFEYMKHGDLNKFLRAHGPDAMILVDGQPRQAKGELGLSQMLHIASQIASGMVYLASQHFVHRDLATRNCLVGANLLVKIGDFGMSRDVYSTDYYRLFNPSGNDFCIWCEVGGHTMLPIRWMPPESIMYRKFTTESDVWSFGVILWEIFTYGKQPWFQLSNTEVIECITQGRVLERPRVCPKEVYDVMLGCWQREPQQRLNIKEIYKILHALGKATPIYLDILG
Briefly: KINOMEscan ScanTK. In kind it is binding.

The target in a further experiment is T7, RET (Homo sapiens, UniProt P07949).
T7 construct: purchased Eurofins DiscoverX KINOMEscan (scanTK)
T7 sequence (P07949 29-1114): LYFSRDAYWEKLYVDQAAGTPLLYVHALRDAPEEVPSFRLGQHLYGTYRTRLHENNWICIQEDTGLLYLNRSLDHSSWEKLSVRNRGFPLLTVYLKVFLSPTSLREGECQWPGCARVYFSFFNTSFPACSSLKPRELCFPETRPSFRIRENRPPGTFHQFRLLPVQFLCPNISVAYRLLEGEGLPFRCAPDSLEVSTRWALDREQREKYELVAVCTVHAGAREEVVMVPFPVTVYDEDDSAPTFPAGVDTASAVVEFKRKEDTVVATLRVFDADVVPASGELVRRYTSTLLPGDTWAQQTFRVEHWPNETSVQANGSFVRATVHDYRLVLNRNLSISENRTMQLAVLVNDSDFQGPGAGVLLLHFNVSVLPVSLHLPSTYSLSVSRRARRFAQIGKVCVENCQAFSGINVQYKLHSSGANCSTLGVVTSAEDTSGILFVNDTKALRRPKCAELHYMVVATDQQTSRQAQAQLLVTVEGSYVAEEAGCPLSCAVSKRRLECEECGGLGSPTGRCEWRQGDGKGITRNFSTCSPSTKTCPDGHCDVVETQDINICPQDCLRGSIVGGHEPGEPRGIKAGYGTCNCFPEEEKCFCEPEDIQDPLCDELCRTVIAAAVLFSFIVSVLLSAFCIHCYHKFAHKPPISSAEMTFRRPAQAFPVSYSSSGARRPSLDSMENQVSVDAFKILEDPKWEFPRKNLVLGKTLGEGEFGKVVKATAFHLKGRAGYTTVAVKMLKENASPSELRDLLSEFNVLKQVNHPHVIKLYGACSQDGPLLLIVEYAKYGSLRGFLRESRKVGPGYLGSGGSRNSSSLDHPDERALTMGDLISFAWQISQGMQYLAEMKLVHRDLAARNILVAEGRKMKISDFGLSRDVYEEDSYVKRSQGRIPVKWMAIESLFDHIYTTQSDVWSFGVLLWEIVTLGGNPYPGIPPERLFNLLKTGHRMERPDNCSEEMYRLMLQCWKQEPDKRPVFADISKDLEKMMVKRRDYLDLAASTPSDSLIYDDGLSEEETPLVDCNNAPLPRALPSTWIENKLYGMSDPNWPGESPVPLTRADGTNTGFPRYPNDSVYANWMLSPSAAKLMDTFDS
Briefly: KINOMEscan ScanTK. It counts as binding.

The next experiment deals with wild-type BTK (Homo sapiens, UniProt Q06187). The experiment can be described thus: NanoBRET target engagement assay in HEK293 cells.
Where [2] appears, read: @1000nM, TRKC, read-out: %Control.
The mark [3] stands for this setting: TRKC, read-out: %Control @1000nM.

T2 sequence (P29597 575-869 limits assumed): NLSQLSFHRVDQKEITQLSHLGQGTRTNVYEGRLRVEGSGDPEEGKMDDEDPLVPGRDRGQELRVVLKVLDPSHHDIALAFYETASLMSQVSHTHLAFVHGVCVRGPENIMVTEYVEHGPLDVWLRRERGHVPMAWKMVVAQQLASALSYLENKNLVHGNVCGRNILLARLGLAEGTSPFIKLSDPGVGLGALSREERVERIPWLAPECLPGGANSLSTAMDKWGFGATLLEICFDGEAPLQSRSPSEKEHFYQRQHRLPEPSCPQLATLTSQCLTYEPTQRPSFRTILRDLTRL

What is called inhibition is the drop in the measured response relative to a control, in per cent. Lower therefore signals little suppression. As to `CCOC(=O)c1cnc(S(C)(=O)=O)nc1N1CCC[C@@H](n2nc(-c3ccc(Oc4ccccc4)cc3)c3c(N)ncnc32)C1` [Compound 8c, Ethyl (R)-4-(3-(4-Amino-3-(4-phenoxyphenyl)-1H-pyrazolo[3,4-d]pyrimidin-1-yl)piperidin-1-yl)-2-(methylsulfonyl)pyrimidine-5-carboxylate], the difference in %Control versus compound Ib at 1 µM at ERBB4 (@1000nM) was 5.15%; on FLT3(N841I) (@1000nM), 54%; on TRKC (@1000nM, TRKC), -18%. The remaining binding at 1 µM at ERBB4 (@1000nM, read-out: %Control) was 5.2%; at ERBB4 (read-out: %Control @1000nM), 5.2%; in experiment [1] (@1000nM, read-out: %Control) it was 100%; in [1] (read-out: %Control @1000nM), 100%; on FLT3(D835H) (@1000nM, read-out: %Control), 96%; on FLT3(D835H) (read-out: %Control @1000nM), 96%. For the same molecule, the remaining binding at 1 µM on FLT3(N841I) (@1000nM, read-out: %Control) amounted to 73%; at FLT3(N841I) (read-out: %Control @1000nM), 73%; on EGFR (@1000nM, read-out: %Control), 43%; on EGFR (read-out: %Control @1000nM) it was 43%; at TRKC (setting [2]), 77%; on TRKC (setting [3]), 77%. For the same molecule, the remaining binding at 1 µM on RET (@1000nM, read-out: %Control) was 84%; at RET (read-out: %Control @1000nM) it was 84%. In addition, the difference in %Control versus Ib at 1 µM in [1] (@1000nM) is 12%. In addition, at FLT3(D835H) (@1000nM), the difference in %Control from compound Ib at 1 µM was 60%. In the experiment with FLT3(ITD,D835V), the “%Control @1000nM” value came out at 69%. The “% difference (compound - Ib %Control)” value in the experiment with FLT3(ITD,D835V) was -8%. For the same molecule, in the experiment with FLT3(ITD,D835V), the “%Control” value worked out at 69%. Moreover, the difference in %Control versus reference compound Ib at 1 µM on EGFR (@1000nM) amounted to 42.8%. The inhibition at 1 µM against EGFR was 57%.

One may read the IC50 as the point on the concentration scale where inhibition reaches its midpoint. In the case of `Cc1cnc(S(C)(=O)=O)nc1N1CCCC(n2nc(-c3ccc(Oc4ccccc4)cc3)c3c(N)ncnc32)C1` (stereo not drawn) [Compound 8a, 1-(1-(5-Methyl-2-(methylsulfonyl)pyrimidin-4-yl)piperidin-3-yl)-3-(4-phenoxyphenyl)-1H-pyrazolo[3,4-d]pyrimidin-4-amine], the difference in %Control versus compound Ib at 1 µM was 64% on ERBB4 (@1000nM); 40% on FLT3(N841I) (@1000nM); -17% on TRKC (@1000nM, TRKC). For the same molecule, the remaining binding at 1 µM at ERBB4 (@1000nM, read-out: %Control) is 64%; at ERBB4 (read-out: %Control @1000nM), 64%; in experiment [1] (@1000nM, read-out: %Control) it was 92%; in experiment [1] (read-out: %Control @1000nM) it was 92%; at FLT3(D835H) (@1000nM, read-out: %Control), 68%; at FLT3(D835H) (read-out: %Control @1000nM), 68%. Further, the remaining binding at 1 µM on FLT3(N841I) (@1000nM, read-out: %Control) was 59%; on FLT3(N841I) (read-out: %Control @1000nM) it was 59%; on EGFR (@1000nM, read-out: %Control) it was 53%; at EGFR (read-out: %Control @1000nM), 53%; on TRKC (setting [2]), 78%; on TRKC (setting [3]), 78%. Besides, the remaining binding at 1 µM at RET (@1000nM, read-out: %Control) was found to be 56%; on RET (read-out: %Control @1000nM), 56%. Also, in experiment [1] (@1000nM), the difference in %Control versus Ib at 1 µM is 4%. At wild-type BTK, this molecule showed an IC50 of 8 ± 9 nM. Further, on wild-type BTK (HEK293 cells, 1 h treatment), the “NanoBRET IC50” value is on record as “low to subnanomolar”. Also, the difference in %Control from compound Ib at 1 µM on FLT3(D835H) (@1000nM) was 32%. Also, the “%Control @1000nM” value with FLT3(ITD,D835V) is recorded as 78%. Moreover, the “% difference (compound - Ib %Control)” value in the experiment with FLT3(ITD,D835V) was determined as 1%. The “%Control” value in the experiment on FLT3(ITD,D835V) is reported as 78%. This molecule had a difference in %Control versus reference compound Ib at 1 µM at EGFR (@1000nM) of 52.8%. The molecule also had an inhibition at 1 µM on EGFR of 47%.

As to `C=CC(=O)N1CCC[C@@H](n2nc(-c3ccc(Oc4ccccc4)cc3)c3c(N)ncnc32)C1` [Compound 1g, Ibrutinib, reference compound], the remaining binding at 1 µM on ERBB4 (@1000nM, read-out: %Control) was 0.05%; on ERBB4 (read-out: %Control @1000nM), 0.05%; in [1] (@1000nM, read-out: %Control), 88%; in experiment [1] (read-out: %Control @1000nM) it was 88%; at FLT3(D835H) (@1000nM, read-out: %Control), 36%; at FLT3(D835H) (read-out: %Control @1000nM), 36%. For the same molecule, the remaining binding at 1 µM at TRKC (read-out: %Control) amounted to 95%; on TRKC (read-out: %Control @1000nM) it was 95%; at RET (@1000nM, read-out: %Control), 12%; on RET (read-out: %Control @1000nM), 12%. The “%Control @1000nM” value in the experiment with FLT3(ITD,D835V) is 77%. The “%Control” value in the experiment with FLT3(ITD,D835V) was found to be 77%.

For `COC(=O)c1cnc(S(C)(=O)=O)nc1N1CCCC(n2nc(-c3ccc(Oc4ccccc4)cc3)c3c(N)ncnc32)C1` (stereo not drawn) [Compound 8b, Methyl 4-(3-(4-Amino-3-(4-phenoxyphenyl)-1H-pyrazolo[3,4-d]pyrimidin-1-yl)piperidin-1-yl)-2-(methylsulfonyl)pyrimidine-5-carboxylate], the difference in %Control versus compound Ib at 1 µM at ERBB4 (@1000nM) was 0.5%; at FLT3(N841I) (@1000nM), 43%; at TRKC (@1000nM, TRKC), -17%. Besides, the remaining binding at 1 µM was found to be 0.55% at ERBB4 (@1000nM, read-out: %Control); 0.55% on ERBB4 (read-out: %Control @1000nM); 96% in experiment [1] (@1000nM, read-out: %Control); 96% in [1] (read-out: %Control @1000nM); 74% on FLT3(D835H) (@1000nM, read-out: %Control); 74% at FLT3(D835H) (read-out: %Control @1000nM). Besides, the remaining binding at 1 µM came out at 62% on FLT3(N841I) (@1000nM, read-out: %Control); 62% at FLT3(N841I) (read-out: %Control @1000nM); 33% on EGFR (@1000nM, read-out: %Control); 33% at EGFR (read-out: %Control @1000nM); 78% on TRKC (setting [2]); 78% at TRKC (setting [3]). The remaining binding at 1 µM on RET (@1000nM, read-out: %Control) was 56%; at RET (read-out: %Control @1000nM), 56%. Moreover, the difference in %Control versus Ib at 1 µM in experiment [1] (@1000nM) came to 8%. This molecule also yielded an IC50 against wild-type BTK of 38 ± 6 nM. The molecule also came in with a difference in %Control from compound Ib at 1 µM on FLT3(D835H) (@1000nM) of 38%. For the same molecule, the “%Control @1000nM” value in the experiment with FLT3(ITD,D835V) was determined as 93%. The “% difference (compound - Ib %Control)” value with FLT3(ITD,D835V) is given as 16%. In the experiment on FLT3(ITD,D835V), the “%Control” value was 93%. Besides, the difference in %Control versus reference compound Ib at 1 µM at EGFR (@1000nM) is 32.8%. In addition, the inhibition at 1 µM against EGFR was 67%.
